# Measurements taken from patent US8084431B2, “Method for inhibiting activation of macrophages, inhibiting formation of osteoclasts, inhibiting function of osteoclasts, and/or activating osteoblasts” (China Medical University, priority 2008, dated 2011).
# Test system: ovariectomized ICR mice
# Assay: Osteoporosis of ovariectomized ICR mice
# Format: in vivo
# Settings: for bone volume/tissue volume / the number of trabecula: femur, micro computed tomography; for bone volume/tissue volume / the number of trabecula / CTx / osteocalcin: 3 weeks; for CTx / osteocalcin: serum
# Protocol: First, the ovaries of ICR mice were removed. After 3 days, the ICR mice were administrated with various dosages (0, 100, and 300 mg/kg) of kinsenoside, respectively. Herein, the unit “mg/kg” means that the dosage (mg) required for each kilogram of the body weight of an animal. After 3 weeks, the ICR mice were sacrificed. ELISA was used to determine the content of osteocalcin and C-terminal cross-lined telopeptides of type I collagen (CTx) in serum. The reagents for determining osteocalcin and CTx were purchased from IDS Nordic A/S, Herlev, Danmarkids. The femurs of the sacrificed ICR mice were taken, and were photographed by a micro computed tomography (SkyScan 1076, Kontizh, Belgium). The computerized axial tomography is shown in FIG. 10, and the ratio of bone volume to tissue volume and the number of trabecula were analyzed with analysis software. Then, the femurs were decalcified and were frozen sectioned. Osteoclasts in the femurs were stained with a TRAP stain reagent.
compound,measurement,setting,value
"O=C1C[C@@H](OC2OC(CO)C(O)C(O)C2O)CO1 (stereo partly drawn) [kinsenoside, 3-(R)-3-β-D-glucopyranosyloxy-butanolide]",bone tissues of the femurs in micro computed tomography,"compared to ICR mice that are not ovariectomized, FIG. 10",return to a normal state
same,bone volume/tissue volume,kinsenoside 100 mg/kg,19.9 ± 1.5 %
same,the number of trabecula,kinsenoside 100 mg/kg,12.2 ± 1.5 cm⁻¹
same,bone volume/tissue volume,kinsenoside 300 mg/kg,21.2 ± 2.2 %
same,the number of trabecula,kinsenoside 300 mg/kg,12.8 ± 1.5 cm⁻¹
same,CTx,kinsenoside 100 mg/kg,29.7 ± 6.9 ng/mL
same,osteocalcin,kinsenoside 100 mg/kg,191.2 ± 33.5 ng/mL
same,CTx,kinsenoside 300 mg/kg,27.5 ± 3.1 ng/mL
same,osteocalcin,kinsenoside 300 mg/kg,351.8 ± 80.5 ng/mL
